Assay [1] relates to HCV replicon. Briefly: cell-based HCV replicon assay. The settings on record: Hepatitis C virus. How it is done:
(§1) HCV NS3/4A protease complex enzyme assays and cell-based HCV replicon assays can be utilized in the present disclosure, and can be prepared, conducted and validated as described in the art (see, for Example, WO 2008/064061).
(§2) Compound 1 was tested as described above and found to have an IC50 (NS3/4A BMS Strain) of 4 nM. The EC50 is 5 nM.
For orientation: In antiviral work, replicon cells carry a viral genome segment that copies itself.

In assay [2] the target is NS3/4A BMS Strain (UniProt P27958). Briefly: HCV NS3/4A protease complex enzyme assay. The format is biochemical, Hepatitis C virus. How it is done: as §1, §2

The text below walks through data of patent US8044023B2, “Hepatitis C virus inhibitors” (Bristol-Myers Squibb Company, priority 2008, dated 2011).

SMILES strings stand for the structures.

Chain of NS3/4A BMS Strain (P27958 1027-1657): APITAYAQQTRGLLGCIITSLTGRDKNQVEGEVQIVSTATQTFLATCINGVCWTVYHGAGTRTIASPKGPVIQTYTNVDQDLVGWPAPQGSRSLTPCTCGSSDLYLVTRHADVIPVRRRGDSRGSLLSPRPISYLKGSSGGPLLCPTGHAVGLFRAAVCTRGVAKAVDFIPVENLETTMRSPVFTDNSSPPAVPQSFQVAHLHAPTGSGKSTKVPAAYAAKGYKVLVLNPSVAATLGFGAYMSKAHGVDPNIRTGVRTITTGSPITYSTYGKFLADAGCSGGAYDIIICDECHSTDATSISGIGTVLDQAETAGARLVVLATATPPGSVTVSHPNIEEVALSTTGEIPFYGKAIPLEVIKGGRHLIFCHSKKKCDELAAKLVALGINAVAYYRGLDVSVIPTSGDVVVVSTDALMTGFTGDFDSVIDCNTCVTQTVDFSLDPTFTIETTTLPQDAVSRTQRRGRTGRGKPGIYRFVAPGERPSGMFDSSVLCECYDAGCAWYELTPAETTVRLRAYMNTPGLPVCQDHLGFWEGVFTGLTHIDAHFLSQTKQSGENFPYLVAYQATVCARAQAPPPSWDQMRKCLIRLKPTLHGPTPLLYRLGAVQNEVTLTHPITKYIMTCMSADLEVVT

Broadly, the EC50 is the concentration that produces a half-maximal response. Lower therefore signals a more potent agent. What is called IC50 is the concentration that inhibits the measured activity by half. Low readings indicate inhibition by little substance, high ones a need for much substance. `CCCCS[C@@]1(c2ccc(-c3ccccc3)cc2)C[C@H]2C(=O)N[C@]3(C(=O)NS(=O)(=O)C4CC4)C[C@H]3/C=C\CCCCC[C@H](NC(=O)OC(C)(C)C)C(=O)N2C1` [Compound 1, tert-butyl (2R,6S,13aS,14aR,16aS,Z)-2-(biphenyl-4-yl)-2-(butylthio)-14a-(cyclopropylsulfonylcarbamoyl)-5,16-dioxo-1,2,3,5,6,7,8,9,10,11,13a,14,14a,15,16,16a-hexadecahydrocyclopropa[e]pyrrolo[1,2-a][1,4]diazacyclopentadecin-6-ylcarbamate] displayed an EC50 in assay [1] of 5 nM. This compound also gave an IC50 in assay [2] of 4 nM.
